One data set can be described thus: cyclic voltammetry. The note with it: DMF, 0.2 M [n-Bu4N][BF4], 1.5 mM complex, scan rate 100 mV s^-1. It counts as physicochemical. As for the experimental part: Since the redox potential is a crucial characteristic for the activation of cobalt(III)-based prodrugs systems, we investigated the novel complexes by cyclic voltammetry in comparison to Co(acac)2LEGFR. Measurements were performed in dimethylformamide (DMF) (+0.2 M [n-Bu4N][BF4]) at a scan speed of 100 mV s^−1. […] Even at a higher scan speed of 1000 mV s^−1, the redox processes were still completely irreversible for all complexes (Fig. S5 ^†).
The compounds were dissolved in DMF (+0.2 M [n-Bu4N][BF4]) to obtain a final concentration of 1.5 mM. Electrochemical experiments were conducted on an EG&G PARC 273A potentiostat/galvanostat with a scan rate of 100–1000 mV s^−1 at room temperature. Argon was bubbled through the solution before every measurement to remove oxygen. A three-electrode configuration cell was used with a glassy carbon electrode as working electrode, which was polished before every measurement. The reference electrode was Ag/Ag^+/ACN (10 mM AgNO3) and the auxiliary electrode was a platinum wire. The potentials were referenced to an internal standard redox couple of ferrocenium/ferrocene and calculated to the NHE (E1/2 = +0.72 V vs. NHE).[63] […] Redox potentials measured relative to the Ag/AgCl/KCl (3.5 M) reference electrode and converted to the NHE using +0.205 V. Measurements were at least repeated three times and the mean values were calculated.

A short description of data set [1]: serum stability in fetal calf serum (HPLC-MS). It is filed as in vitro ADME. Particulars: 37 °C. As for the experimental part:
Therefore, we only investigated the stability of the novel complexes in fetal calf serum (FCS). As reference again Co(acac)2LEGFR[26] was included. The complexes were dissolved in 50 mM phosphate puffer and mixed 1 : 10 with fetal calf serum (FCS; buffered with 150 mM phosphate buffer to keep a stable pH of 7.4) to a final concentration of 50 μM. The samples were incubated at 37 °C and after 0, 2, 4, 6, 24 and 26 h extracted with acetonitrile and measured by HPLC-MS. […] This indeed confirms, that by avoiding the direct attachment of the ethylenediamine moiety to an aromatic ring system, complexes with much higher stability can be generated. Since no distinct difference in stability between Co(acac)2LPon and Co(Meacac)2LPon within 26 h could be observed, measurements were repeated up to 72 h.
For serum stability measurements, 135 μL FCS, buffered with 150 mM phosphate (Na2HPO4/NaH2PO4) to maintain a pH value of 7.4, were mixed with 15 μL of a 500 μM stock solution of the respective complex in 50 mM phosphate buffer to reach a final concentration of 50 μM. The samples were incubated at 37 °C. At different time points to 20 μL serum 40 μL of ACN were added. After vigorously shaking for 2 min the suspension was centrifuged at 6000 rpm for 10 min. The supernatant was taken with a syringe and directly measured via HPLC-MS. The samples were analyzed on an Agilent 1260 Infinity system using a Waters Atlantis T3 column (150 mm × 4.6 mm) coupled to a Bruker Amazon SL ESI-IT mass spectrometer. Water and acetonitrile (both containing 0.1% formic acid) were used as eluents with a gradient of 1–99% acetonitrile within 29 min.

The next data set has as its system K-562 cells. Description: cell-associated LPon fluorescence by flow cytometry (ligand release). Particulars: 24 h, 10 μM, normoxic. It is filed as cell-based, human. As for the experimental part: Prior to the evaluation of the anticancer activity of our novel derivatives in cell culture models, we examined the stability of Co(acac)2LPon and Co(Meacac)2LPon in the presence of cells under normoxic conditions. The stability was determined by the appearance of LPon-associated fluorescence (vide supra) in BCR-ABL-driven K-562 leukemia cells via flow cytometry. […] Despite significant LPon-release from the two complexes over time (up to 24 h), in case of Co(Meacac)2LPon cell-associated fluorescence remained more than 7.5-fold lower after 24 h as compared to the free ligand.
Next, the impact of hypoxia on the stability of our novel derivatives was evaluated by monitoring intracellular fluorescence intensities under normoxic (21% O2) vs. hypoxic (0.1% O2) conditions. […] Hypoxic fluorescence activation in case of both cobalt(III) complexes was time-dependent, reaching significance after 6 h of compound incubation and resulting in 2- to 4-fold higher intensities.
Cells were seeded (1 × 10^6 cells per well) in 96-well plates, dissolved compounds were added and cells were incubated under normoxic or hypoxic cell culture conditions. Samples were measured on a BD LSRFortessa X-20 cell analyzer high throughput sampler (HTS) (BD Biosciences, East Rutherford, NJ, USA). Compound fluorescence was detected using 405 nm excitation and pacific blue (450/50 nm) band pass emission filters. […]
In general terms: A flow cytometer gives signals particle by particle.

For a further data set, the system named is A431. Particulars: cited from earlier work.
Another data set relates to H1975. The note with it: cited from earlier work.
For the next data set, the target named is ABL1 (Homo sapiens, UniProt P00519). Kind of data set: cell-free kinase inhibition assay (Z'-LYTE, SelectScreen). It is filed as biochemical. Particulars: 10-fold excess of ATP, 1% DMSO, read-out: IC50 against ABL1. An excerpt: (§1) The test compounds were screened in a final concentration of 1% DMSO using the Z′-LYTE® Assay.
ABL1, sequence (P00519 whole entry): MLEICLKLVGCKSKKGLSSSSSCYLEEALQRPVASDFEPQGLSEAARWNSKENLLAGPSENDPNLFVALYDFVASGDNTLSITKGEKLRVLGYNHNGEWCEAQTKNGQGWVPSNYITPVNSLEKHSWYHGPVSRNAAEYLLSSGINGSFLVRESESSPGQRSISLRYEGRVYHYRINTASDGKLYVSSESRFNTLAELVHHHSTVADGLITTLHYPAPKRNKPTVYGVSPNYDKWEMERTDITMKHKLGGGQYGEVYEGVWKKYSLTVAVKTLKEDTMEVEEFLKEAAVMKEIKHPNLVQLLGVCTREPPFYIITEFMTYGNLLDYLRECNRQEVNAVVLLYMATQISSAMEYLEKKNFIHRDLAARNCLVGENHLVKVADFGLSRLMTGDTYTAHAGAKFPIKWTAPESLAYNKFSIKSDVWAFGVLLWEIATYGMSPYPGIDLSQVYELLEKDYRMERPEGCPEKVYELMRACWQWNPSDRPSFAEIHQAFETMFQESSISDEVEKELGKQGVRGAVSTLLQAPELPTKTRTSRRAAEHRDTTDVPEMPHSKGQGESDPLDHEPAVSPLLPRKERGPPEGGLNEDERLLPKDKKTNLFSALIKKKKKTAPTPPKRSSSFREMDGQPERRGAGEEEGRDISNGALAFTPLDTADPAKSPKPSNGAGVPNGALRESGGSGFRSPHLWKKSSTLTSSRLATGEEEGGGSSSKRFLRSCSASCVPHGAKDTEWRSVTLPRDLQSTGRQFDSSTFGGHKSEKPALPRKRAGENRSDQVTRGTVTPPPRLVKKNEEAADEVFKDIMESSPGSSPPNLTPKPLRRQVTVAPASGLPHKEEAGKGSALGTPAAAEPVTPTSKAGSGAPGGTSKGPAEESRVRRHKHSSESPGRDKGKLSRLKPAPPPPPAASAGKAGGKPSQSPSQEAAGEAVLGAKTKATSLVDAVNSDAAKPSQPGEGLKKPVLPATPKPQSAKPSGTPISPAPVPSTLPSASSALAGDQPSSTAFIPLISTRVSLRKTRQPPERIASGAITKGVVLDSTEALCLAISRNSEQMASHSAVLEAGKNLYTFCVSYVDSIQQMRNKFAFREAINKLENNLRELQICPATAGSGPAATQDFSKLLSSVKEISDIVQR
Another data set deals with FGFR1 (Homo sapiens, UniProt P11362). The description is as above. It is filed as biochemical.
FGFR1, sequence (P11362 22-822): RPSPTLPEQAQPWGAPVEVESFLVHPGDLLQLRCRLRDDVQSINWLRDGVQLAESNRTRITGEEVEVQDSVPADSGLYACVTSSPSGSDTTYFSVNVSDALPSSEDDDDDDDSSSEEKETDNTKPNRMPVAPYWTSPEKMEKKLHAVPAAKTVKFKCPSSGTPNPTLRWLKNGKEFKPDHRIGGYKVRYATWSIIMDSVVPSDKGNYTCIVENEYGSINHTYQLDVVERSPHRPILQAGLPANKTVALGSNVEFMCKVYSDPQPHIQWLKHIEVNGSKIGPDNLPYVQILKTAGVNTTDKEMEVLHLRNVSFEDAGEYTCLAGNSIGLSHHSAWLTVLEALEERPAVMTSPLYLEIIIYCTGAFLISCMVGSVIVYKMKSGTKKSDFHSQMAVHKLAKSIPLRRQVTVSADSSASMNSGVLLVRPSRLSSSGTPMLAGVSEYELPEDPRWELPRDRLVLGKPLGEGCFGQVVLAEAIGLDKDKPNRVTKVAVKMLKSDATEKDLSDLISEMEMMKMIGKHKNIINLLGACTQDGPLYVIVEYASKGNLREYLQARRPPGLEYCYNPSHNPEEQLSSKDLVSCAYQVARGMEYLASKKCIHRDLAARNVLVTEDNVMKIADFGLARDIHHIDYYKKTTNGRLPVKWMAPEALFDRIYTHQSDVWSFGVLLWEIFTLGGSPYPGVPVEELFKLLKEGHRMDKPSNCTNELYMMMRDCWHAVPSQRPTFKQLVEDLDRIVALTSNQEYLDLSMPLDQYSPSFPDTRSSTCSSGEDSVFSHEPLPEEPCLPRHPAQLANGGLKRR
From the text: as §1

For data set [2], the system named is BCR-ABL-positive K-562 leukemic cells. Kind of data set: MTT vitality assay, 72 h, normoxic vs hypoxic. It counts as cell-based. The note with it: Homo sapiens, K562, 72 h, printed in picture Fig. 9A, read-out: IC50, K-562 cell viability.
Protocol: In case of hypoxic cell culture conditions, plated and treated cells were incubated at 37 °C, 5% CO2 and 0.1% O2 (ProOx Model C21 system, BioSpherix) in humidified incubators for the indicated time point before analysis. All investigated compounds were dissolved in dimethyl sulfoxide (DMSO) as 10 mM stock solutions and were stored at −20 °C. Dilutions in culture media supplemented with 10% fetal calf serum were made immediately before the experiments at the indicated concentrations. Corresponding dilutions of DMSO were used as untreated vehicle controls.
Cells were seeded (3–7 × 10^4 cells per well) in 96-well plates and after 24 h recovery treated with increasing concentrations of compounds in triplicates. After 72 h drug exposure under normoxic or hypoxic cell culture conditions (0.1% O2) (ProOx Model C21 system, BioSpherix), the proportion of viable cells was determined by 3-(4,5-dimethylthiazol-2-yl)-2,5-diphenyltetrazolium bromide (MTT)-vitality assay (EZ4U, Biomedica, Vienna, Austria) or by luminescence assay based on adenosine triphosphate quantification (CellTiter-Glo, Promega, Madison, Wisconsin) following the manufacturer's recommendations. […] MTT-derived cytotoxicity was expressed as IC50 values calculated from full dose–response curves using GraphPad Prism software (La Jolla, CA).
A further data set deals with UM-UC-14 cells. Kind of data set: ligand release by UV fluorescence microscopy. It counts as cell-based, human. Particulars: 10 μM, 24 h, UM-UC-14, fluorescence microscopy. As for the experimental part: The enhanced stability of Co(acac)2LPon under normoxia and its hypoxia-induced ligand release was subsequently confirmed by fluorescence microscopy. Fluorescence intensities indicated a ∼2.8-fold decreased stability of the cobalt(III) complex under hypoxic vs. normoxic cell culture conditions.
UM-UC-14 cells were seeded (2.5 × 10^5 cells per well) in 12-well plates and after 24 h recovery treated with 10 μM of compounds. After 24 h incubation, the drug solutions were removed, cells were washed with PBS and microphotographs of the different treatments were taken using UV fluorescence microscopy (Nikon Eclipse Ti2 microscope with a DAPI filter and a high-pressure mercury lamp) and a 20× objective. The level of cellular fluorescence was determined from fluorescence microscopy images using ImageJ software.
Figure S9: Ligand release of Co(acac)2LPon under normoxic and hypoxic cell culture conditions in comparison to LPon using UV fluorescence microscopy. UM-UC-14 cells were incubated with 10 µM of compounds for 24 h. Images of the different treatments were taken by UV fluorescence microcopy (20X objective) and the corrected total cell fluorescence was evaluated using ImageJ software. Data in Figure S9B are given as means ± SD of ten analyzed microphotographs per compound. Statistical significance was calculated by unpaired t test with p < .05(*). […]

Data set [3] deals with p-ERK1/2 and p-S6 in K-562 cells. Description: western blot of downstream signalling, 12 h. The note with it: K-562, 12 h, western blot. It counts as cell-based, human. As for the experimental part: Fig. 10 Impact of the cobalt(III) complexes on the ERK1/2 and S6 under normoxic and hypoxic conditions. K-562 cells were treated with the compounds, after 12 h cell lysates were prepared and protein expression as well as phosphorylation levels of downstream pathways (p-ERK1/2 and p-S6) analyzed by western blotting. One representative experiment out of three is shown. The ratio of phosphorylated to total protein is given between the respective lanes.
K-562 cells were plated (5 × 10^5 cells per well) in 6-well plates and allowed to recover for 24 h. Subsequently, the cells were treated with the drugs in different concentrations. After 12 h cells were harvested, proteins were isolated, resolved by sodium dodecyl sulfate polyacrylamide gel electrophoresis (SDS/PAGE), and transferred onto a polyvinylidene difluoride membrane for western blotting. The following antibodies were used: ERK1/2 (p44/42) rabbit monoclonal antibody (mAb) (137F5, #4695), phospho-ERK1/2 rabbit mAb (Thr202/Tyr204) (20G11, #4376), phospho-S6 rabbit pAb (Ser240/244, #2215) (Cell Signaling Technology, Beverly, MA, USA), S6 mouse mAb (C-8. #sc-74459) (Santa Cruz Biotechnology, TX, USA) and β-actin mouse mAb (#A5441, Sigma). All primary antibodies were used in 1 : 1000 dilutions (in Tris-buffered saline containing 0.1% Tween20 (TBST) + 3% bovine serum albumin (BSA)). Secondary goat anti-mouse-IgG (Fc specific)-peroxidase antibody (#A0168, Sigma) and horseradish peroxidase(HRP)-labeled mouse anti-rabbit IgG (#sc-2357, Santa Cruz Biotechnology) were used at working dilutions of 1 : 10 000 (in TBST + 1% BSA).
(In general: A western blot detects proteins with antibodies after separation by electrophoresis.)

The mark [4] stands for this setting: normoxic as well as hypoxic conditions.

Usually IC50 stands for the concentration needed to halve the response being measured.

Read-outs that look alike come from different tables or passages of the source.

With `CC(=O)C(C)=C(C)[O-].CC(=O)C(C)=C(C)[O-].Cc1ccc(C(=O)Nc2ccc(CNCCN)c(C(F)(F)F)c2)cc1C#Cc1cnc2cccnn12.O=C(O)C(F)(F)F.[Co+3]` [Co(Meacac)2LPon, Bis(3-methyl-2,4-pentanedionato) N-(4-(((2-aminoethyl)amino)methyl)-3-(trifluoromethyl)phenyl)-3-(imidazo[1,2-b]pyridazin-3-ylethynyl)-4-methylbenzamide cobalt(III) 2,2,2-trifluoroacetate], the “cathodic peak potential (Co(III) to Co(II), irreversible)” value in “cyclic voltammetry” is reported as −442 mV vs. NHE. Moreover, the “intact complex remaining in FCS” value in data set [1] (26 h, pH 7.4, 50 μM) is listed as around 90%. For the same molecule, the “intact compound remaining in FCS” value in data set [1] (72 h, pH 7.4) is listed as around 80%. In the data set with K-562 cells, the “cell-associated fluorescence, fold lower than the free ligand” value is listed as “more than 7.5 fold”.

For `[Cl-].[Cl-].[Co+2]` [CoCl2], the cytotoxic activity entry in the data set on A431 and in the data set on H1975 was “no significant cytotoxic activity” in each case.

Consider `Cc1ccc(C(=O)Nc2ccc(CNCCN)c(C(F)(F)F)c2)cc1C#Cc1cnc2cccnn12` [LPon, N-(4-(((2-Aminoethyl)amino)methyl)-3-(trifluoromethyl)phenyl)-3-(imidazo[1,2-b]pyridazin-3 ylethynyl)-4-methylbenzamide·3TFA], for which the concentration for half-maximal inhibition (IC50) at ABL1 is 1.93 nM; on FGFR1 (cell-free, 10-fold excess of ATP, 1% DMSO, read-out: IC50 against FGFR1), 25.9 nM; in data set [2] (hypoxic (H, 0.1% O2)) it was 3.67 nM; in data set [2] (normoxic (N, 21% O2)) it was 4.57 nM. Also, the “factor by which FGFR inhibition is weaker than ponatinib” value on FGFR1 (cell-free IC50 ratio vs ponatinib) is listed as around 5. The “fluorescence intensity change (decreased stability) hypoxic vs. normoxic” value in the data set with UM-UC-14 cells is “remained unaffected”. Moreover, the “activity on ERK1/2 and S6 phosphorylation, normoxic vs hypoxic” value in data set [3] was “equally active under the two oxygen conditions”.

As to `CC(=O)[CH-]C(C)=O.CC(=O)[CH-]C(C)=O.NCCN.[Co+2]` [[Co(II)(acac)2en]], the cytotoxic activity entry in the data set with A431 (setting [4]) and in the data set with H1975 (setting [4]) was “no significant cytotoxic activity” each time.

Take `CC(=O)[CH-]C(C)=O.CC(=O)[CH-]C(C)=O.F[P-](F)(F)(F)(F)F.NCCN.[Co+3]` [[Co(III)(acac)2en]PF6]: the cytotoxic activity entry with A431 (setting [4]) and with H1975 (setting [4]) was “no significant cytotoxic activity” in each case.

(Values after publication PMC8129988 (Inorganic Chemistry Frontiers, 2021).)
